Measurements: US20210393565A1, “PREPARATION FOR USE TO INCREASE THE FORMATION OF ONE OR MORE SPECIALIZED PRO-RESOLVING LIPID MEDIATORS (SPM)” (Evonik Operations GmbH, priority 2018, published 2021)

Assays:
Assay type in all cases: cell-based
[1] = tested on: Bacillus megaterium DSM 32963 cells; assay: Lipidometabolomics (UPLC-MS/MS) of culture supernatants with AvailOm, dissolved or as dispersion; details: for Extracellular concentration of PUFA oxygenation product: − bile acids, net after subtraction of cell-free control
From the text: (§1) Bacterial supernatant samples were subjected to lipid extraction using RP-phase solid phase extraction and subsequently analyzed by ultra performance liquid chromatography ESI tandem mass spectrometry (UPLC-MS/MS) according to a published procedure. Under these conditions approximately 40 different LM, including 5-hydroxy-eicosapentaenoic acid 5-HEPE, 8-HEPE, 11-HEPE, 12-HEPE, 15-HEPE, 18-HEPE, 5-hydroxy-eicosatetraenoic acid (5-HETE), 8-HETE, 11-HETE, 12-HETE, 15-HETE, 4-hydroxy-DHA (4-HDHA), 7-HDHA, 13-HDHA, 14-HDHA, 17-HDHA, lipoxin A4 (LXA4), LXB4, resolvin E1 (RvE1), RvE3, resolvin D1-5 (RvD1-5), AT-RvD1, RvD2, protectin D1 (PD1), AT-PD1, maresin 1(MaR1), MaR2, plus 4 fatty acid substrates can be detected with a lower limit of detection of 1 pg.
To investigate if Bacillus megaterium is capable of producing other PUFA oxygenation products in addition to 18-HEPE, a lipidometabolomics screening of supernatants from Bacillus megaterium strain 32963 cultured as in example 4 with AvailOm® was performed, either dissolved or in a dispersion formulation, with or without bile acids. Cell-free preparations of AvailOm® formulations were treated and analyzed in parallel and served as controls for non-enzymatic, spontaneous formation of oxygenation products. Values given in table 6 display net concentrations of products formed, i.e. after subtraction of control values. […] Concentrations of several SPM exceed by far the concentrations of SPM found in human plasma samples, which are typically in a range of ˜20-100 pg/ml. For comparison, human breast milk contains ˜6.000 pg/ml RvE1 and ˜10.000 pg/ml RvD1 [42].

[2] = tested on: 47 additional Bacillus megaterium strains; assay: Screening of 47 additional strains for SPM production from AvailOm dispersion formulation
From the text: as §1
47 additional Bacillus megaterium strains sourced from various habitats were screened for their SPM production capacity to determine if this is a general phenomenon of the species Bacillus megaterium and to detect strain-specific differences in types and quantities of SPM being produced. Cells were cultured as detailed in example 4, with dispersion formulation of AvailOm® serving as omega-3 fatty acid source. Cell-free preparations of AvailOm® were treated and analyzed in parallel and served as controls for non-enzymatic, spontaneous formation of oxygenation products. […]

[3] = tested on: Bacillus megaterium DSM 33299 cells; assay: Lipidometabolomics of culture supernatants with AvailOm dispersion formulation; details: Bacillus megaterium DSM 33299, AvailOm dispersion formulation; net concentration
From the text: as §1
(§2) 47 additional Bacillus megaterium strains sourced from various habitats were screened for their SPM production capacity to determine if this is a general phenomenon of the species Bacillus megaterium and to detect strain-specific differences in types and quantities of SPM being produced. Cells were cultured as detailed in example 4, with dispersion formulation of AvailOm® serving as omega-3 fatty acid source. Cell-free preparations of AvailOm® were treated and analyzed in parallel and served as controls for non-enzymatic, spontaneous formation of oxygenation products. It was observed that all tested strains produced measurable (>1 pg/ml) amounts of various SPM and precursors thereof, that these amounts were hugely different between the strains (up to 2.000 fold), and that concentrations of RvE3 were particularly high (up to 1.3 μg/ml) in most of the strains.
(§3) Values given in table 7 display net concentrations of PUFA oxygenation products formed by two of the top performing strains, Bacillus megaterium DSM 33296 and Bacillus megaterium DSM 33299.

[4] = tested on: Bacillus megaterium DSM 33296 cells; assay: as above; details: Bacillus megaterium DSM 33296, AvailOm dispersion formulation; net concentration
From the text: as §1, §2, §3

SMILES	Extracellular concentration of PUFA oxygenation product ([1]; AvailOm dispersion) [pg/mL]	concentration produced, highest among the strains [2]	Extracellular concentration of PUFA oxygenation product [3] [pg/mL]	Extracellular concentration of PUFA oxygenation product [4] [pg/mL]	abundance with dispersion formulation and/or bile acids compared to AvailOm without both (in words) [1]	Extracellular concentration of PUFA oxygenation product ([1]; AvailOm) [pg/mL]
CC[C@H](O)C(O)/C=C/C=C/C=C\C/C=C\C/C=C\CCCC(=O)O (some centres unmarked) [RvE3, resolvin E3]	33092	up to 1.3 μg/ml	880739	1322555		
CCCCC/C=C\C/C=C\C=C\C(O)C/C=C\CCCC(=O)O (centres unmarked) [8-HETE, 8-hydroxy-eicosatetraenoic acid]			15941	24207	lower	
CC/C=C\C/C=C\C[C@H](O)\C=C/C=C/C=C/[C@H](O)C/C=C\CCC(=O)O [MaR1, maresin 1]	145		1576	1161		114
